# Laboratory results as given in US10278943B2, “Method of treating hyperglycemia” (Center Laboratories, Inc., priority 2016, dated 2019).
# Experiments:
# Format in all cases: in vivo
# NIDDM mice [1] = experiment: Fasting blood glucose level in NIDDM (db/db) mice, 44 days treatment (Example 1.2)
# Method: (§1) NIDDM mice and db/m+ mice (the sham control) were acclimated at least one week and then grouped for treatment when the average blood glucose value was ≥350 mg/dl after 6-hr fasting. […] Blood glucose and glycated haemoglobin (HbA1c) levels were measured on designated days after 6-hr fasting. Body weight of each test animal was also measured during the study period.
# For comparison, a group of 5 db/m+ (C57BLKS/J Lar-m+/+Lepr^db) mice were used as the sham control. Blood glucose levels were measured on day 0 (before treatment), and on days 15, 30, and 45 in the 6-hr fasting animals. Results are illustrated in FIG. 2.
# NIDDM mice [2] = experiment: Fasting blood glucose level in NIDDM (db/db) mice, R-VPM and/or metformin, 42 days (Example 2.1); settings: for blood glucose level, % of day 0: 6-hr fasting; for reduction of blood glucose level compared with the vehicle group: metformin 300 mg/Kg; for effect on blood glucose level on its own: low dose, 15 mg/Kg, HCl
# Method: as §1
# (§2) For comparison, a group of 8 db/m+ (C57BLKS/J Lar-m+/+Lepr^db) mice were used as the sham control. Levels of blood glucose and HbA1c were respectively measured on day 0 (before treatment), and on day 15, 29 and 43 in the 6-hr fasting animals.
# In Table 1, blood glucose level in each treatment group was expressed as % of the control, which was the blood glucose level on day 0 and was taken to be 100%.
# NIDDM mice [3] = experiment: Glycated haemoglobin (HbA1c) level in NIDDM (db/db) mice, R-VPM and/or metformin (Example 2.2); settings: for C = B − A, HbA1c level minus vehicle / HbA1c level relative to day 0 = 100: metformin 300 mg/Kg once daily
# Method: as §1, §2
# Another common indicator, glycated haemolglobin (HbA1c), which reflects average blood glucose levels over a duration was also measured in the present study. HbA1c develops when haemolglobin, a protein within red blood cells that carries oxygen throughout the body joins with glucose in the blood and becomes “glycated.” Since red blood cells in a human body survive for about 8-12 weeks before renewal, thus, the level of HbA1c gives an overall picture of average blood sugar levels over such period.
# [4] = system: STZ-induced diabetic mice; experiment: Blood glucose level in STZ-induced diabetic mice (Example 1.1)
# Method: Wide-type male C57BL/6 mice were rendered diabetic by multiple intraperitoneal injection of streptozotocin (STZ, 40 mg/Kg/day for 5 days, day 1 to day 5). […] For animals treated with insulin, insulin was administered subcutaneously 90 minutes before blood glucose measurement. Non-fasting blood glucose level was measured on days 6, 15, and 25, whereas fasting blood glucose (i.e., blood glucose level after fasting for 12 hrs fasting) was measured on days 40 and 50.
# Results are illustrated in FIG. 1.
# [5] = metformin 300 mg/Kg once daily, day 15
# [6] = metformin 300 mg/Kg once daily, day 29
# [7] = metformin 300 mg/Kg once daily, day 43
molecule,measurement,setting,value
"CN(C)C(=N)N=C(N)N [metformin, reference compound]",effect on level of fasting blood glucose (FIG. 2),NIDDM mice [1]; metformin 300 mg/Kg,reduced the level of fasting blood glucose
same,"C = B − A, blood glucose level minus vehicle",NIDDM mice [2]; [5],−31.8%
same,"blood glucose level, % of day 0",NIDDM mice [2]; [5],65.3%
same,"C = B − A, blood glucose level minus vehicle",NIDDM mice [2]; [6],−12.8%
same,"blood glucose level, % of day 0",NIDDM mice [2]; [6],103.6%
same,"C = B − A, blood glucose level minus vehicle",NIDDM mice [2]; [7],−12.8%
same,"blood glucose level, % of day 0",NIDDM mice [2]; [7],108.8%
same,reduction of blood glucose level compared with the vehicle group,NIDDM mice [2]; day 15,about 31.8%
same,reduction of blood glucose level compared with the vehicle group,NIDDM mice [2]; day 29,~12.8%
same,reduction of blood glucose level compared with the vehicle group,NIDDM mice [2]; day 43,~12.8%
same,effect on blood glucose levels (FIG. 3),"NIDDM mice [2]; metformin, days 15, 29 and 43",could reduce the blood glucose levels
same,effect on HbA1c level (FIG. 4),NIDDM mice [3]; metformin,significantly reduce HbA1c level
same,"C = B − A, HbA1c level minus vehicle",NIDDM mice [3]; day 15,−5.5
same,HbA1c level relative to day 0 = 100,NIDDM mice [3]; day 15,114.7
same,"C = B − A, HbA1c level minus vehicle",NIDDM mice [3]; day 29,−2.5
same,HbA1c level relative to day 0 = 100,NIDDM mice [3]; day 29,124.9
same,"C = B − A, HbA1c level minus vehicle",NIDDM mice [3]; day 43,−3
same,HbA1c level relative to day 0 = 100,NIDDM mice [3]; day 43,133
insulin [reference compound],effect on level of non-fasting or fasting blood glucose (FIG. 1),[4]; insulin subcutaneously 90 minutes before measurement,capable of reducing
"COc1ccc(CCN(C)CCC[C@](C#N)(c2ccc(OC)c(OC)c2)C(C)C)cc1OC.Cl [R-VMP, (R)-(+)-verapamil HCl]","potency in reducing the level of fasting blood glucose, compared between enantiomers (FIG. 1)","[4]; oral, bid, fasting 12 hrs, days 40 and 50",relatively more potent than (S)-(−)-verapamil HCl
same,dose at which the compound alone is effective in reducing blood glucose level,[4]; taken together of the findings in the working examples,"≥ 25 mg/Kg, bid"
same,effect on fasting blood glucose level compared with control vehicle NIDDM mice (FIG. 2),"NIDDM mice [1]; 50 and 75 mg/Kg, bid",reduced the fasting blood glucose level
same,"E = D − A, blood glucose level minus vehicle","NIDDM mice [2]; R-VMP 15 mg/Kg, bid, day 15",2.3%
same,"blood glucose level, % of day 0","NIDDM mice [2]; R-VMP 15 mg/Kg, bid, day 15",99.4%
same,"E = D − A, blood glucose level minus vehicle","NIDDM mice [2]; R-VMP 15 mg/Kg, bid, day 29",5.2%
same,"blood glucose level, % of day 0","NIDDM mice [2]; R-VMP 15 mg/Kg, bid, day 29",121.6%
same,"E = D − A, blood glucose level minus vehicle","NIDDM mice [2]; R-VMP 15 mg/Kg, bid, day 43",−6.6%
same,"blood glucose level, % of day 0","NIDDM mice [2]; R-VMP 15 mg/Kg, bid, day 43",115%
same,"E = D − A, blood glucose level minus vehicle","NIDDM mice [2]; R-VMP 30 mg/Kg, bid, day 15",−9.4%
same,"blood glucose level, % of day 0","NIDDM mice [2]; R-VMP 30 mg/Kg, bid, day 15",87.7%
same,"E = D − A, blood glucose level minus vehicle","NIDDM mice [2]; R-VMP 30 mg/Kg, bid, day 29",−12.9%
same,"blood glucose level, % of day 0","NIDDM mice [2]; R-VMP 30 mg/Kg, bid, day 29",103.5%
same,"E = D − A, blood glucose level minus vehicle","NIDDM mice [2]; R-VMP 30 mg/Kg, bid, day 43",−21.9%
same,"blood glucose level, % of day 0","NIDDM mice [2]; R-VMP 30 mg/Kg, bid, day 43",99.7%
same,"E = D − A, blood glucose level minus vehicle","NIDDM mice [2]; R-VMP 50 mg/Kg, bid, day 15",−14.8%
same,"blood glucose level, % of day 0","NIDDM mice [2]; R-VMP 50 mg/Kg, bid, day 15",82.3%
same,"E = D − A, blood glucose level minus vehicle","NIDDM mice [2]; R-VMP 50 mg/Kg, bid, day 29",−22%
same,"blood glucose level, % of day 0","NIDDM mice [2]; R-VMP 50 mg/Kg, bid, day 29",94.4%
same,"E = D − A, blood glucose level minus vehicle","NIDDM mice [2]; R-VMP 50 mg/Kg, bid, day 43",−22.9%
same,"blood glucose level, % of day 0","NIDDM mice [2]; R-VMP 50 mg/Kg, bid, day 43",98.7%
same,effect on blood glucose levels (FIG. 3),"NIDDM mice [2]; higher dose, 30 or 50 mg/Kg, bid",could reduce the blood glucose levels
same,effect on blood glucose level on its own,NIDDM mice [2]; bid,possessed no treatment effect
same,effect on blood glucose level on its own,"NIDDM mice [2]; bid, listed as R-VPM",ineffective
same,effect on HbA1c level (FIG. 4),"NIDDM mice [3]; 15 mg/Kg, bid",no effect
same,effect on HbA1c level (FIG. 4),"NIDDM mice [3]; 30 mg/Kg, bid",mild reduction
same,"E = D − A, HbA1c level minus vehicle","NIDDM mice [3]; R-VMP 15 mg/Kg, bid, day 15",−2.5
same,"E = D − A, HbA1c level minus vehicle","NIDDM mice [3]; R-VMP 15 mg/Kg, bid, day 29",0.9
same,"E = D − A, HbA1c level minus vehicle","NIDDM mice [3]; R-VMP 15 mg/Kg, bid, day 43",−3.8
same,"E = D − A, HbA1c level minus vehicle","NIDDM mice [3]; R-VMP 30 mg/Kg, bid, day 15",−1
same,"E = D − A, HbA1c level minus vehicle","NIDDM mice [3]; R-VMP 30 mg/Kg, bid, day 29",0.1
same,"E = D − A, HbA1c level minus vehicle","NIDDM mice [3]; R-VMP 30 mg/Kg, bid, day 43",−12.8
same,"E = D − A, HbA1c level minus vehicle","NIDDM mice [3]; R-VMP 50 mg/Kg, bid, day 15",−4.5
same,"E = D − A, HbA1c level minus vehicle","NIDDM mice [3]; R-VMP 50 mg/Kg, bid, day 29",−3.7
same,"E = D − A, HbA1c level minus vehicle","NIDDM mice [3]; R-VMP 50 mg/Kg, bid, day 43",−10.5
"COc1ccc(CCN(C)CCC[C@@](C#N)(c2ccc(OC)c(OC)c2)C(C)C)cc1OC.Cl [S-VPM, (S)-(−)-verapamil HCl]",effect on reduction of fasting blood glucose level (FIG. 2),NIDDM mice [1]; dose not printed in the sentence (bid),"neither racemic verapamil HCl (30 mg/Kg, bid) nor (S)-(−)-verapamil HCl, possessed any effect"
"COc1ccc(CCN(C)CCCC(C#N)(c2ccc(OC)c(OC)c2)C(C)C)cc1OC (racemic) [VPM, 2-(3,4-dimethoxyphenyl)-5-[2-(3,4-dimethoxyphenyl)ethylmethylamino]-2-propan-2-ylpentanenitrile, reference compound]",effect on fasting or non-fasting blood glucose level (FIG. 1),"[4]; 25 or 35 mg/Kg, bid, oral",had no effects
same,effect on reduction of fasting blood glucose level (FIG. 2),"NIDDM mice [1]; 30 mg/Kg, bid","neither racemic verapamil HCl (30 mg/Kg, bid) nor (S)-(−)-verapamil HCl, possessed any effect"
